{"source": "patent US20240299345A1", "about": "“GINKGOLIDE B AND ITS DERIVATIVES FOR INHIBITING AND/OR REVERSING AGING” (CHINA MEDICAL UNIVERSITY, priority 2023, published 2024)", "key": {"[1]": {"system": "skeletal muscle of aged C57BL/6 mice", "assay": "Muscle histology (fiber type, oil red O, Masson's trichrome, central nuclei) and vascular network in aged mice", "type": "in vivo, mouse", "conditions": "GB 2 months", "experimental": "Body composition was measured by Minispec LF50 TD-NMR (Bruker, MA, USA) based on nuclear magnetic resonance methods. Briefly, mice were anesthetized for the duration of the procedure by 3% isoflurane (Zoctis, London, UK) and placed in the scanning chamber in the prone position, with the limbs and tail stretched away from the body. The analysis would be conducted by default software per manufacturer's protocol. The vascular networks […] were quantified by in vivo micro-computed tomography (U-CT, Milabs, Netherlands). Briefly, mice intravenously received 150 μL ExiTron™ nano 12000 (#130-095-698, Miltonic Biotec GmbH, Bergisch Gladbach, Germany), and then mice were anesthetized with isoflurane before being positioned on the scanning chamber. After scanning, the blood vessels were analyzed by a curved multiplanar reconstruction algorithm by using Osirix software (Bernex, Switzerland)."}, "[2]": {"system": "20-month-old aged female C57BL/6 mice", "assay": "Physical functional analysis (grip strength, rotarod, hanging, balance beam) in aged mice", "type": "in vivo, mouse", "experimental": "(§1) Forelimb grip strength was measured by a grip strength meter (Muromachi Kikai Co., Tokyo, Japan). Each mouse performed five trials for force measurement, and the values were normalized to body and recorded. A rotarod test was carried out by using the rotarod treadmill (Singa Technology Corporation, Taoyuan City, Taiwan). The speed was adjusted to 4 rpm for 4 sec, 10 rpm for 10 sec, 20 rpm for 20 sec, and then 40 rpm until the mice fell. Mice were familiarized with the rotarod and balance beam by running 5 min for three consecutive days before the onset of experimentation. During the experiment, each mouse performed four trials, and the average time that each rodent was able to stay on top of the rotarod treadmill was recorded. The balance beam test was used to assess subtle motor coordination and balance. After initial training, mice were given four consecutive trials where they were required to cross 60 cm of a round beam (14 mm in diameter). The time for crossing the beam and the number of hind-feet slip were recorded. Hanging endurance was determined by Kondziella's inverted hanging screen test. Mice were putted at the center of grasped wire screen (bar thickness, 2 mm; mesh, 10 mm). After inverting the wire screen, the time of sustained limb tension on the screen were recorded. A fixed maximum hanging limit of 600 seconds was used. Each trial was repeated three times at 30-min interval, the mean values were recorded."}, "[3]": {"system": "kidney, heart, spleen and liver in aged mice", "conditions": "mouse, in vivo", "protocol": "All animals were purchased from Laboratory Animal Services Centre, the Chinese University of Hong Kong, ad libitum fed the standard diet (#5V0f, LabDiet, St. Louis, MO, USA), and housed at specific-pathogen-free and humidity-controlled conditions under a 12 light: 12 dark photoperiod with temperature at 20-22° C. Animals were kept up to five per cage and were randomly assigned to control and experimental groups in all experiments. […] For the short-term experiment, 3-(young), 6-(adult) and 20-month-old (aged) female C57BL/6 mice were administered 12 mg/kg body weight GB (#G6910, Sigma-Aldrich, St. Louis, MO, USA) or vehicle daily by oral gavage for two months. […] GB was diluted to the appropriate concentration in 100 μL of sterile PBS (#10378016, Gibco, Waltham, MA, USA).\nTissue samples were harvested and embedded in paraffin or in OCT (#4583, Sakura Finetek USA, Torrance, CA, USA). For paraffin-embedded samples, 10 μm sections were deparaffinized by xylene and alcohol gradient treatment and were then hydrated by distilled water and processed for heat-induced antigen retrieval with antigen retrieval solution at 70° C. for 1.5 hours before staining. For OCT-embedded samples, 10 μm sections were hydrated by distilled water before staining. Hematoxylin and cosin staining (#MHS16 and #HT110116 Sigma-Aldrich), oil red O staining (#00625, Sigma-Aldrich), and Masson's trichrome staining (#HT15, Sigma-Aldrich) were used to assess the histology, lipid droplet, and collagen deposition. For immunohistochemical staining, antigen-retrieval samples were blocked with 5% bovine serum albumin (BSA) (#A9647, Sigma-Aldrich) for 1 hour at room temperature and incubated with primary antibodies overnight at 4° C., followed by a ready-to-use IHC/ICC Kit (#K405, BioVision, Milpitas, CA, USA) at room temperature. The samples were then suspended with double-distilled water and then stained with hematoxylin. For immunocytochemical staining, samples were blocked with 5% BSA (Sigma-Aldrich) for 1 hour at room temperature and incubated with primary antibodies overnight at 4° C., then washed with PBS for ten minutes, and then incubated with secondary antibody for 1 hour at room temperature, then washed with PBS three times for ten minutes."}, "[4]": {"system": "6-month-old female C57BL/6 mice", "assay": "GB in 6-month-old adult mice (steady state): osteocalcin, myofiber CSA, grip strength", "type": "in vivo, mouse", "conditions": "6-month-old female mice", "experimental": "as §1\nSerum was collected by cardiac puncture upon sacrifice.\nThe maintenance of muscle mass and strength in adulthood reduces the risk of sarcopenia and improves healthspan. Osteocalcin is necessary to maintain muscle mass and health throughout the whole life, and loss of osteocalcin after the age of 30 leads to muscle loss. Since GB increased osteocalcin in aged osteoblasts, we postulated that oral GB administration could increase osteocalcin and skeletal muscle mass in mice. In a proof-of-principle experiment, we gave GB to 6-month-old female mice equivalent to 30-year-old women for two months (FIG. 1A). […] GB administration enlarged the CSA of the tibialis anterior and soleus muscles (FIGS. 1C to 1E, p=0.021 and <0.0001, respectively) and increased forelimb grip strength (FIG. IF, p=0.036)."}}, "data": [{"smiles": "CC1C(=O)OC2C(O)C34C5CC(C(C)(C)C)C36C(OC(=O)C6O)OC4(C(=O)O5)C12O", "note": "(centres unmarked) [GB, Ginkgolide B]", "values": [{"measurement": "capillary density", "setting": "[1]; CD31 staining of quadriceps, p=0.0492", "result": "dramatically enlarges"}, {"measurement": "aging-related changes in fiber-type switching", "setting": "[1]; GA muscle, in particular type 1 and 2B myofibers", "result": "partially reversed"}, {"measurement": "number of central myonuclei in aged myofibers", "setting": "[1]; p=0.0011", "result": "reduced"}, {"measurement": "collagen deposition in muscle", "setting": "[1]; Masson's trichrome, GA muscle, p=0.0004", "result": "reduced"}, {"measurement": "deep femoral artery", "setting": "[1]; micro-CT, p=0.012", "result": "dramatically enlarges"}, {"measurement": "intramuscular lipid infiltration", "setting": "[1]; oil red O, GA muscle, p=0.01", "result": "reduced"}, {"measurement": "grip strength", "setting": "[2]; GB 12 mg/kg daily oral 2 months vs vehicle-aged, p<0.01", "result": "higher"}, {"measurement": "duration of hanging", "setting": "[2]; GB 2 months vs vehicle-aged, p<0.0001", "result": "prolonged duration"}, {"measurement": "duration on the rotarod", "setting": "[2]; GB 2 months vs vehicle-aged, p<0.05", "result": "prolonged duration"}, {"measurement": "balance beam: latency to cross", "setting": "[2]; GB 2 months, p<0.001", "result": "decreased"}, {"measurement": "balance beam: number of foot slips", "setting": "[2]; GB 2 months, p<0.001", "result": "reduced"}, {"measurement": "circulating GOT, GPT and UA", "setting": "[3]", "result": "reduction"}, {"measurement": "liver and spleen size", "setting": "[3]", "result": "no effect"}, {"measurement": "CSA of the soleus muscle", "setting": "[4]; GB 12 mg/kg daily oral 2 months vs vehicle, p<0.0001", "result": "enlarged"}, {"measurement": "CSA of the tibialis anterior muscle", "setting": "[4]; GB 12 mg/kg daily oral 2 months vs vehicle, p=0.021", "result": "enlarged"}, {"measurement": "forelimb grip strength", "setting": "[4]; GB 12 mg/kg daily oral 2 months vs vehicle, p=0.036", "result": "increased"}, {"measurement": "circulating osteocalcin", "setting": "[4]; GB 12 mg/kg daily oral gavage 2 months vs vehicle, p=0.0114", "result": "significantly higher"}]}]}
